Entries after “also recorded” stand apart in the source; their conditions may differ.
Tests used:
human GnRH-R [1] = molecular target: T1, human GnRH-R (Homo sapiens, UniProt P30968); test: Inositol phosphate (IP) accumulation in COS-7 cells transfected with human GnRH-R; type: cell-based; design: host or cells: COS-7
T1 sequence (P30968 1-328): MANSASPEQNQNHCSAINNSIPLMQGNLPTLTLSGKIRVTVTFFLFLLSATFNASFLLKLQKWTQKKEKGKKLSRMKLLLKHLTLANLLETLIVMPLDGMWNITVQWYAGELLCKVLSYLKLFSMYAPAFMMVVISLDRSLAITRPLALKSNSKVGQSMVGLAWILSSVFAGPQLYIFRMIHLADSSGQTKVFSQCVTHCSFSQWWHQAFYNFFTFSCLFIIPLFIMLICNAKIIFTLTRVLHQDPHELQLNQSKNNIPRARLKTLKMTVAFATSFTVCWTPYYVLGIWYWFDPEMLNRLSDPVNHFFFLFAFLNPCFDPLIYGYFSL
Experimental: Figure 6 IP accumulation. (A) COS-7 cells were transiently transfected with human GnRH-R expression vector and washed before the addition of myo-[2-^3H]Inositol. […] This experience was conducted three times each in triplicate. (B) Representation of individual values of EC-50 (calculated with Arcsin “P” root transformation) from n = 3 dose-response experiments.
COS-7 cells were transiently transfected by electroporation with human GnRH-R DNA (10 µg/15 cm dish), seeded into 12-well plates and radiolabelled by overnight incubation with myo-[3H]Inositol (0.5 µCi/well, American Radiolabeled Chemicals, St Louis, Mo). […] Incubations were stopped by removal of the medium and cells were lysed by addition of formic acid (1 ml, 10 mM). IP were extracted from cell lysates using Dowex 1 X8-200 chromatography and counted using a liquid scintillation counter (Pack ard). EC-50 and Emax values were calculated using Graphpad Prism (GraphPad Software Inc).

human GnRH-R [2] = molecular target: T1, human GnRH-R; test: Competition radioligand binding, 125I-[His5, D-Tyr6]-GnRH, transfected COS-7 cells
Experimental: Figure 2 Binding of WT and R31C GnRH to the GnRH receptor (GnRH-R). […] Data are the means of two experiments performed in triplicate.
The high affinity GnRH analog, [His^5, D-Tyr^6]-GnRH was radio-iodinated as previously described and purified using Sephadex chromatography. COS-7 cells were transiently transfected with a human GnRH-R DNA construct containing the human GnRH-RII carboxy-terminal to enhance expression using 6 µg of DNA and 30 µl FuGene HD (Promega Corporation, Madison, WI) per 10 cm dish and seeded into 12-well plates. […] Cells were washed with phosphate-buffered saline (2×1 ml) and lysed with NaOH (1 ml, 0.1 M). Cell-bound radioactivity was counted in a gamma counter and IC-50 values were calculated using Graphpad Prism (GraphPad Software Inc, San Diego).

LH (LbetaT2 cells) = test: LH secretion from LbetaT2 cells; type: cell-based, murine; conditions: for LH secretion versus WT GnRH: 10 nM R31C; for LH secretion over baseline: 10 nM, four experiments in duplicates, p<0.001 for WT, p = 0.042 for R31C
Experimental: Figure 7 Effects of treatments on lhb transcription and LH secretion. (A) LbetaT2 cells were starved overnight in serum-free DMEM and treated either by 10 nM WT, R31C, 10 nM WT +10 nM R31C peptides or vehicle. After five hours treatment cells were lysed for RNA extraction (Trizol®). Mouse lhb levels were analyzed by quantitative real time RT-qPCR. Values are expressed as individual ratios on 18S and represented as fold induction on vehicle as means ± SEM, **p<0.01. This experience was conducted n = 7 times in duplicates. (B) LH concentrations from LbetaT2 cells culture media. Cells were starved overnight in serum-free DMEM and incubated with 10 nM WT, 10 nM R31C, 10 nM WT +10 nM R31C, or vehicle for 5 hours. LH levels were measured by a combined rat/mouse RIA. Values are expressed as individual values and as means ± SEM, *p<0.05, ***p<0.001. The experiment was conducted four times and each sample was assayed in duplicates.
LbetaT2 cells were starved overnight in serum-free DMEM. The test day cells were exposed to 10 nM WT, R31C, the combination of 10 nM of each peptide or vehicle during five hours. Cell culture supernatants were collected and rapidly stored at −80°C. In cell culture media, LH concentration was measured using a previously described […] method with reagents supplied by Dr. Parlow (National Hormone and Peptide Program, Harbor-UCLA Medical Center, Torrance, CA). The minimum detectable LH concentration was 0.2 ng/ml, and the interassay coefficient of variation was less than 10%.

GNRHR = test: SRE-coupled luciferase after pulsatile exposure (four 90 min-spaced pulses), HEK293T cells; type: cell-based, human; conditions: 5 minutes each, 10 nM WT, 10 nM R31C or 10+10 nM, harvested five hours after last pulse, three experiments, n = 8 replicates
Experimental: Supplementary file pone.0069616.s002.ppt: Figure S2 Luciferase activity after pulsatile exposure. HEK293T cells were transiently transfected with GNRHR and SRE-coupled luciferase reporter gene, and then exposed to four 90 min-spaced pulses of 10 nM WT, 10 nM […] and 10+10 nM WT+[…]. After 5 minutes exposure to each ligand, cells were washed, and a subsequent pulse was given 90 minutes after. Five hours after the last pulse, cells were harvested for luciferase assay. Luciferase activity arbitrary units obtained by luminometry (a.l.u.) are shown as ratio on beta-galactosidase activity by optical density (used as transfection efficiency internal control). This experience was conducted three times (n = 8 replicates for each experiment). (PPT) Click here for additional data file.

[3] = R31C 10^−10 M to 10^−6 M in combination with WT GnRH at 10^−9 M

| EC50 (human GnRH-R [1]; COS-7, human GnRH-R, 1 hour, n = 3 dose-response experiments each in triplicate, Arcsin "P" root transformation, spread not defined, read-out: EC-50, IP accumulation (Fig. 6B)) [nM] | impact of added R31C GnRH on IP generation with WT GnRH (human GnRH-R [1]; [3]) | IP activity / potency (human GnRH-R [1]; R31C GnRH versus WT) | less potent than WT GnRH, IP accumulation (human GnRH-R [1]; R31C GnRH versus WT GnRH, p<0.01) [fold] | IC50 (human GnRH-R [2]; COS-7 transfected with human GnRH-R construct, 125I-[His5, D-Tyr6]-GnRH, 4 h, 4°C, two experiments performed in duplicate) [nM] | impact of added R31C GnRH on receptor binding with WT GnRH (human GnRH-R [2]; [3]) | activity in receptor binding (human GnRH-R [2]; R31C GnRH) | affinity for GnRH-R lower than that of WT GnRH (human GnRH-R [2]; R31C GnRH versus WT GnRH, COS-7 cells) | SMILES | maximal IP / agonism (human GnRH-R [1]; COS-7, R31C compared with WT) | LH secretion versus WT GnRH (LH (LbetaT2 cells); 5 hours) | LH secretion versus WT GnRH (LH (LbetaT2 cells); 5 hours, listed as R31C peptide) | influence of R31C GnRH on stimulation of LH secretion by WT GnRH (LH (LbetaT2 cells); 10 nM WT + 10 nM R31C, 5 hours) | LH secretion over baseline (LH (LbetaT2 cells); 5 hours) | impact of added R31C GnRH on LH secretion with WT GnRH (LH (LbetaT2 cells); [3]) | luciferase activity after pulsatile administration (GNRHR) |
| --- | --- | --- | --- | --- | --- | --- | --- | --- | --- | --- | --- | --- | --- | --- | --- |
| 199 ± 75.9 | failed to have any impact | very low activity | > 100 | 850 | failed to have any impact | very low activity | more than 100 fold | CC(C)C[C@H](NC(=O)CNC(=O)[C@H](Cc1ccc(O)cc1)NC(=O)[C@H](CO)NC(=O)[C@H](Cc1c[nH]c2ccccc12)NC(=O)[C@H](Cc1c[nH]cn1)NC(=O)[C@@H]1CCC(=O)N1)C(=O)N[C@@H](CS)C(=O)N1CCC[C@H]1C(=O)NCC(N)=O [R31C GnRH] | full agonist; also recorded: maximal IP generated by both ligands was the same; also recorded: able to elicit the same maximal stimulation | very low activity | weaker responses | unable to influence | significantly stimulated LH secretion | failed to have any impact |  |
|  |  |  |  |  |  |  |  | CC(C)C[C@H](NC(=O)CNC(=O)[C@H](Cc1ccc(O)cc1)NC(=O)[C@H](CO)NC(=O)[C@H](Cc1c[nH]c2ccccc12)NC(=O)[C@H](Cc1c[nH]cn1)NC(=O)[C@@H]1CCC(=O)N1)C(=O)N[C@@H](CCCNC(=N)N)C(=O)N1CCC[C@H]1C(=O)NCC(N)=O [WT GnRH, reference compound] |  |  |  |  | strongly stimulated LH secretion over baseline |  | more potent than R31C GnRH |

Source: paper PMC3723855, “R31C GNRH1 Mutation and Congenital Hypogonadotropic Hypogonadism” (PLoS ONE, 2013)
